Marks after values point to notes of the source that are not given here.
Key:
adiponectin secretion [1] = experiment: Adiponectin secretion in LPS/3T3-L1 adipocytes; assay type: cell-based, murine; conditions: LPS 100 ng/ml; for adiponectin secretion, in words: any of the doses tested
adiponectin secretion [2] = experiment: Adiponectin secretion from insulin-resistant 3T3-L1 adipocytes; assay type: cell-based, murine
Procedure: 3T3-L1 cells were seeded at an initial density of 1×10^4 cells/cm^2 in 96-well plates. For two days, the cells were allowed grow to reach confluence. Following confluence, the cells were forced to differentiate into adipocytes by the addition of differentiation medium; this medium consisted of (1) 10% FBS/DMEM (high glucose); (2) 0.5 mM methylisobutylxanthine; (3) 0.5 μM dexamethasone and (4) 10 μg/ml insulin (MDI medium). From Day 3 through Day 5, the medium was changed to post-differentiation medium consisting of 10 μg/ml insulin in 10% FBS/DMEM.
Briefly, on Day 6, cells were maintained in serum-free media containing 0.5% bovine serum albumin (BSA) for three hours and then treated with 1 μg insulin/ml plus solvent or insulin plus test material. […] Twenty-four hours later, the supernatant medium was sampled for adiponectin determination.
(§1) Adiponectin Assay—The adiponectin secreted into the medium was quantified using the Mouse Adiponectin Quantikine® Immunoassay kit with no modifications (R&D Systems, Minneapolis, Minn.).
Statistical Calculations and Interpretation—All assays were preformed in duplicate. […] Differences between the doses were determined using the student's t-test without correction for multiple comparisons; the nominal five percent probability of a type I error was selected. […]

adiponectin secretion [3] = experiment: Adiponectin secretion from TNFα-treated 3T3-L1 adipocytes; assay type: cell-based, murine; conditions: for maximum increase of adiponectin secretion from the TNFα control: 10 ng/ml TNFα
Procedure: 3T3-L1 cells were seeded at an initial density of 1×10^4 cells/cm^2 in 96-well plates. For two days, the cells were allowed grow to reach confluence. Following confluence, the cells were forced to differentiate into adipocytes by the addition of differentiation medium; this medium consisted of (1) 10% FBS/DMEM (high glucose); (2) 0.5 mM methylisobutylxanthine; (3) 0.5 μM dexamethasone and (4) 10 μg/ml insulin (MDI medium). From Day 3 through Day 5, the medium was changed to post-differentiation medium consisting of 10% FBS in DMEM. […] On Day 6, the supernatant medium was sampled for adiponectin determination.
as §1
Statistical Calculations and Interpretation—All assays were preformed in duplicate. […] Differences among the doses and test agents were determined using the Student's t-test without correction for multiple comparisons; the nominal five percent probability of a type I error was selected.

[4] = Non-fasting serum glucose and insulin in db/db diabetic mice, three days; assay type: in vivo, mouse; conditions: three consecutive days by gavage
Procedure: The Model—Male, C57BLKS/J m^+/m^+ Lepr^db (db/db) mice were used to assess the potential of the test materials to reduce fasting serum glucose or insulin concentrations. This strain of mice is resistant to leptin by virtue of the absence of a functioning leptin receptor.
Testing Procedure—Test substances were administered daily by gavage in 0.2% Tween-80. Serum was collected from the retroorbital sinus before the initial dose and ninety minutes after the third and final dose. Non-fasting serum glucose was determined enzymatically by the mutarotase/glucose oxidase method and serum insulin was determined by a mouse specific ELISA.

IL-6 = experiment: Serum IL-6 in collagen induced arthritis murine model; assay type: in vivo, mouse; conditions: 10 mg/kg
[5] = test system: human PI3K-β, PI3K-γ, and PI3K-δ; experiment: Effect of hops components on PI3K activity (FIG. 3); assay type: biochemical; conditions: 50 μg/ml
Procedure: Additionally examined was an Acacia nilotica heartwood extract. All compounds were tested at 50 μg/ml. The results are presented graphically as FIG. 3.

PGE2 biosynthesis = PGE2 biosynthesis in A549 pulmonary epithelial cells stimulated by mite dust allergen; assay type: cell-based, human; conditions: 10 μg/ml, added 60 minutes prior to mite dust allergen
Description: Mite dust allergen isolation—Dermatophagoides farinae is the American house dust mite. D. farinae were raised on a 1:1 ratio of Purina Laboratory Chow (Ralston Purina, Co, St. Louis, Mo.) and Fleischmann's granulated dry yeast (Standard Brands, Inc. New York, N.Y.) at room temperature and 75% humidity. Live mites were aspirated from the culture container as they migrated from the medium, killed by freezing, desiccated and stored at 0% humidity. The allergenic component of the mite dust was extracted with water at ambient temperature. Five-hundred mg of mite powder were added to 5 ml of water (1:10 w/v) in a 15 ml conical centrifuge tube (VWR, Rochester, N.Y.), shaken for one minute and allowed to stand overnight at ambient temperature. The next day, the aqueous phase was filtered using a 0.2 μm disposable syringe filter (Nalgene, Rochester, N.Y.). The filtrate was termed mite dust allergen and used to test for induction of PGE2 biosynthesis in A549 pulmonary epithelial cells.
Cell culture and treatment—The human airway epithelial cell line, A549 (American Type Culture Collection, Bethesda, Md.) was cultured and treated as previously described in Example 6. Mite allergen was added to the culture medium to achieve a final concentration of 1000 ng/ml. Eighteen hours later, the media were sampled for PGE2 determination.

CC(=O)Oc1ccccc1C(=O)O [Aspirin]
adiponectin secretion, in words (adiponectin secretion [1]): failed to induce adiponectin secretion

CC(C)CCC1=C(O)C(C(=O)C(C)C)=C(O)C(CCC(C)C)(CCC(C)C)C1=O [Hexahydro-colupulone (HHCL)]
Adiponectin/IL-6 (adiponectin secretion [2]; 50.0 μg/ml, ratio of indexes (Table 21)): 0.60#

COc1ccc2c(c1)c(CC(=O)O)c(C)n2C(=O)c1ccc(Cl)cc1 [Indomethacin]
Maximum adiponectin stimulation (adiponectin secretion [1]; […]): 9%

CCc1ccc(CCOc2ccc(CC3SC(=O)NC3=O)cc2)nc1 (stereo not drawn) [Pioglitazone]
Maximum adiponectin stimulation (adiponectin secretion [1]; […]): 12%
Adiponectin Index (relative maximum) (adiponectin secretion [3]; 10 ng TNFα/ml, [Adiponectin]Test/[Adiponectin]TNFα control): 1.47
maximum increase of adiponectin secretion from the TNFα control (adiponectin secretion [3]): 80%
Adiponectin Index Observed (adiponectin secretion [3]; 1.0 μg/ml, indexed to TNFα control (Table 26)): 1.80

Cc1c(C)c2c(c(C)c1O)CCC(C)(COc1ccc(CC3SC(=O)NC3=O)cc1)O2 (stereo not drawn) [Troglitazone]
Maximum adiponectin stimulation (adiponectin secretion [1]; 0.625 μg/ml): 15%
maximum increase of adiponectin secretion from the TNFα control (adiponectin secretion [3]): 51%

CC(C)CCC1=C(O)C(C(=O)C(C)C)=C(O)C(CCC(C)C)(CCC(C)C)C1=O [hexahydrocolupulone]
concentration required for half maximal adiponectin secretion (adiponectin secretion [2]; Hofstee plot slope): 3.2 µg/mL

CC(C)Cc1ccc(C(C)C(=O)O)cc1 (stereo not drawn) [ibuprofen]
Maximum adiponectin stimulation (adiponectin secretion [1]; 0.625 μg/ml): 22%

CN(C)C(=N)N=C(N)N [metformin]
serum glucose, in words [4]: decreased

C[C@]12C=CC(=O)C=C1CC[C@@H]1[C@@H]2[C@@H](O)C[C@@]2(C)[C@H]1CC[C@]2(O)C(=O)CO [prednisolone]
serum IL-6 levels, in words (IL-6): reached a statistical significance

O=C(O)c1ccccc1O [salicylic acid]
adiponectin secretion, in words (adiponectin secretion [1]): failed to induce adiponectin secretion

COc1cc(O)c(CC=C(C)C)c(O)c1C(=O)/C=C/c1ccc(O)cc1 [xanthohumol]
PI3K isoform effect, in words [5]: more inhibitory to PI3K-γ than to PI3K-β or PI3K-δ
serum glucose, in words [4]: reduction in serum glucose
serum insulin, in words [4]: no effect on insulin

Beta acids
Percent PGE2 Inhibition (PGE2 biosynthesis): 83%

Source: patent US20080031894A1, “Beta acid based protein kinase modulation cancer treatment” (Metaproteomics, LLC, priority 2006, published 2008)
